Test results: US8633025B2, “Generation of neuronal cells from embryonic stem cells” (Universite Libre de Bruxelles, priority 2007, dated 2014)

Legend:
ES cell-derived neurons [1] = experiment: Whole-cell patch clamp recording of spontaneous post-synaptic currents; assay type: cell-based, mouse; settings: for Inhibition of recorded ePSCs: NBQX 5 μM and APV 50 μM
Method: Electrophysiological recordings were performed at room temperature (20-25° C.) in an external solution (ACSF) containing 120 mM NaCl, 26 mM NaHCO3, 11 mM D-glucose, 2 mM KCl, 2 mM CaCl2, 1.2 mM MgSO4 and 1.2 mM KH2PO4 with an osmolarity of 290 mOsm. The recording chamber was constantly superfused at a flow rate of 1 ml/min. […] Both pipette solutions were adjusted to pH 7.3 and 300-330 mOsm/l. Whole-cell patch clamp recordings were carried out with an EPC10 amplifier (HEKA, Elektronik, Lambrecht/Pfalz, Germany) in voltage clamp mode. Signals were filtered at 4 kHz using the built-in filter of EPC10 and digitally sampled at 20 kHz except spontaneous postsynaptic currents signals that were filtered at 2.5 kHz and digitally sampled at 5 kHz. Voltage protocol generation, data acquisition and analysis were made with Pulse 8.65 (HEKA, Elektronik, Lambrecht/Pfalz, Germany). The presence of spontaneous excitatory postsynaptic currents (sEPSCs) was assessed by clamping neurons to −60 mV in the presence of 100 μM picrotoxin. The presence of spontaneous inhibitory postsynaptic currents (sIPSCs) was assessed by clamping neurons to […] in the presence of 1 μM TTX, 5 μM 2,3-dioxo-6-nitro-1,2,3,4-tetrahydrobenzo[f]quinoxaline-7-sulfonamide disodium salt (NBQX) and 50 μM D-(−)-2-amino-5-phosphonopentanoic acid (APV). To further check the nature of spontaneous postsynaptic currents, NBQX (5 μM) and APV (50 μM) were used to block AMPA and NMDA receptors respectively and picrotoxin (100 μM) was used to block GABAA receptors. Fifteen neurons were recorded for each type of PSC and for each condition (DDM or DDM+cyclo).

ES cell-derived neurons [2] = experiment: Layer-specific cortical markers among Tuj1+ neurons (immunofluorescence); assay type: cell-based, mouse; settings: of all Tuj1+ neurons, days 16-21
Method: Medium was removed and cells were rinsed with PBS then fixed for 30 min in 4% paraformaldehyde (PFA) in PBS, pH 7.4 at 4° C. PFA was removed and cells were rinsed three times with PBS. Blocking of unspecific antibody activity and permeabilization was done in PBS supplemented with 5% horse serum (Invitrogen-Gibco), 3% bovine serum albumin (Sigma) and 0.3% Triton X-100 (Sigma). Incubation with primary antibodies was done in PBS supplemented with 1% horse serum, 3% bovine serum albumin and 0.1% Triton X-100 overnight at 4° C. Cells were rinsed three times with PBS and incubated with secondary antibodies in PBS supplemented with 1% horse serum, 3% bovine serum albumin and 0.1% Triton X-100 for one hour at room temperature then rinsed again three times with PBS. For double or multiple immunostaining, the process was repeated. […] For some antibodies, antigen retrieval was used before blocking: cells were boiled during 4×5 minutes in 10 mM citrate buffer (pH 6.0) and cooled down to room temperature during 20 minutes.
(§1) For quantification of the proportion of cells expressing a specific marker (differentiation markers, region-specific markers, neurotransmitter transporter proteins or layer-specific markers), at least 300 cells from 3 independent experiments (at least 100 cells from each experiment) were counted for each time-point studied.
We studied the expression of the following layer-specific markers corresponding to the major subtypes of cortical neurons generated in vivo in the mouse, including: Tbr1 and reelin for preplate neurons and Cajal-Retzius cells; Tle4, Tbr1, CTIP2, Otx1, Er81, FoxP2 for deep ([…]) layer neurons; Satb2 and Cux1 for upper (II/III/IV) layer neurons and callosal projection neurons of layer V (see FIG. 5).

ES cell-derived neurons [3] = experiment: Neurotransmission markers among Tuj1-positive neurons derived from ES cells (immunofluorescence); assay type: cell-based, mouse; settings: of Tuj1-positive cells after 28 days of differentiation
Method: Similar results were obtained with several ES cell lines, including distinct derivatives of E14 and J1 cells. ES cells were trypsinised, dissociated and plated at a density of 5×10^3 cells/cm^2 on gelatin-coated cell culture plastic dishes in ES medium. When needed, the cells were plated for 15-30 minutes on gelatin coated-dishes, to let the MEFS adhere and the supernatant containing ES cells only was recovered and subsequently replated on gelatin coated dishes. After adhesion, medium was changed to “Default Differentiation Medium” (DDM). DDM consists of DMEM/F12 (Invitrogen-Gibco) supplemented with 1×N2 supplement (100×N2 supplement consists of 8.61 μM insulin, 1 mM transferrin, 2 μM progesterone, 10.01 mM putrescine and 3.01 μM selenite; Invitrogen-Gibco), 2 mM glutamine (Invitrogen-Gibco), 1×MEM-nonessential amino acids (Invitrogen-Gibco), 1 mM sodium pyruvate (Invitrogen-Gibco), 110 μM beta-mercaptoethanol (Sigma) and 0.5 mg/ml Bovine Serum Albumine, Fraction V (Invitrogen-Gibco). Medium was changed every two days. […]
as §1, with “studied. […]” for “studied.”

ES cell-derived neurons [4] = experiment: Morphology and Pyramidal Morphology Index (PMI) of MAP2-positive neurons; assay type: cell-based, mouse
Description: Pictures of at least 100 neurons stained for MAP2 were to taken randomly for each condition and from two different experiments and the quantification was done blindly in Adobe Photoshop Software using a 25 μm circle drawn on a superposed layer.

ES cell-derived neurons [5] = experiment: Slice overlay assay on postnatal cortical slices, radial orientation; assay type: cell-based; settings: 21 days of differentiation, four days after plating on mouse postnatal cortical slices
[6] = system: ES cell-derived neural progenitors; settings: short BrdU pulse
Method: (§2) Experimental procedures were as described in Example 1. […] Ethanol was used as control.
For long term pulse chase experiments, BrdU (Becton Dickinson) was added to the differentiation medium on the different days during 24 h at a final concentration of 10 μM. Cells were dissociated after 21 days of differentiation and plated on coated coverslips for an additional day. For short-term BrdU uptake experiments, BrdU was added to the differentiation medium during 1 hour prior to cell dissociation and replating.
For BrdU detection, medium was removed and cells were rinsed with PBS then fixed for 30 min in 4% paraformaldehyde (PFA) in PBS, pH 7.4 at 4° C. PFA was removed and cells were rinsed three times with PBS. BrdU was unmasked using an antigen retrieval method: cells were boiled during 4×5 minutes in 10 mM citrate buffer (pH 6.0) and cooled down to room temperature during 20 minutes. Immunostaining was performed as described above using mouse anti-BrdU (1/50, Becton Dickinson) or rat anti-BrdU (1/250, Abcam) antibodies. Multiple labelling was performed sequentially as described above.

ES cells = experiment: Regional identity markers among Nestin-positive neural progenitors from ES cells differentiated in DDM+cyclo (immunofluorescence); assay type: cell-based, mouse
Method: Similar results were obtained with several ES cell lines, including distinct derivatives of E14 and J1 cells. ES cells were trypsinised, dissociated and plated at a density of 5×10^3 cells/cm^2 on gelatin-coated cell culture plastic dishes in ES medium. When needed, the cells were plated for 15-30 minutes on gelatin coated-dishes, to let the MEFS adhere and the supernatant containing ES cells only was recovered and subsequently replated on gelatin coated dishes. After adhesion, medium was changed to “Default Differentiation Medium” (DDM). DDM consists of DMEM/F12 (Invitrogen-Gibco) supplemented with 1×N2 supplement (100×N2 supplement consists of 8.61 μM insulin, 1 mM transferrin, 2 μM progesterone, 10.01 mM putrescine and 3.01 μM selenite; Invitrogen-Gibco), 2 mM glutamine (Invitrogen-Gibco), 1×MEM-nonessential amino acids (Invitrogen-Gibco), 1 mM sodium pyruvate (Invitrogen-Gibco), 110 μM beta-mercaptoethanol (Sigma) and 0.5 mg/ml Bovine Serum Albumine, Fraction V (Invitrogen-Gibco). Medium was changed every two days.
Medium was removed and cells were rinsed with PBS then fixed for 30 min in 4% paraformaldehyde (PFA) in PBS, pH 7.4 at 4° C. PFA was removed and cells were rinsed three times with PBS. Blocking of unspecific antibody activity and permeabilization was done in PBS supplemented with 5% horse serum (Invitrogen-Gibco), 3% bovine serum albumin (Sigma) and 0.3% Triton X-100 (Sigma). Incubation with primary antibodies was done in PBS supplemented with 1% horse serum, 3% bovine serum albumin and 0.1% Triton X-100 overnight at 4° C. Cells were rinsed three times with PBS and incubated with secondary antibodies in PBS supplemented with 1% horse serum, 3% bovine serum albumin and 0.1% Triton X-100 for one hour at room temperature then rinsed again three times with PBS. For double or multiple immunostaining, the process was repeated. Nuclei were stained with bisbenzimide (Hoechst#33258; Sigma) and coverslips were mounted with glycergel (DAKO). For some antibodies, antigen retrieval was used before blocking: cells were boiled during 4×5 minutes in 10 mM citrate buffer (pH 6.0) and cooled down to room temperature during 20 minutes.
as §1, §2

[7] = system: ES cell-derived neural progenitors; experiment: Regional markers among Nestin-positive progenitors after DDM+Shh or DDM+Dkk; assay type: cell-based, mouse; settings: 14 days
Method: FIG. 12 illustrates that neural progenitors and neurons of ventral telencephalic identity (including cortical interneurons, striatal interneurons, striatal projections neurons) can be generated from ES cells following DDM+Shh (at 1-10 μM) or DDM+DDK Wnt inhibitor (at 100-300 ng/ml), or a combination of both (at 1 μM/100 ng/ml respectively). (A) Proportion of Nestin positive neural progenitors expressing specific neural regionalization markers following 14 days of differentiation in DDM or DDM+Shh or DDM+DKK. (B), (C) Proportion of VgluT1, VgluT2 and vGAT, and reelin, Tbr1, Isl1 among Tuj1 positive neurons after 21 days of differentiation in DDM alone or DDM+Shh or DDM+DKK, or DDM+Shh/DKK.
To increase the proportion of ventral character of the ES cell-derived neural progenitors, we chose to increase Shh signalling, by adding soluble recombinant Shh to DDM, or to antagonize dorsalizing Wnt-signalling, by adding Dickkopf-1 (Dkk), a soluble antagonist of the Wnt pathway.

[8] = neurons after 28 days following differentiation in DDM
[9] = cyclopamine 1 μM day 2 to day 10, 14 days, of Nestin-positive cells

## 2,3-dioxo-6-nitro-1,2,3,4-tetrahydrobenzo[f]quinoxaline-7-sulfonamide disodium salt [NBQX]
ES cell-derived neurons [1]; [8]
  Inhibition of recorded ePSCs: selective inhibition

## N[C@H](CCCP(=O)(O)O)C(=O)O [APV, D-(−)-2-amino-5-phosphonopentanoic acid]
ES cell-derived neurons [1]; [8]
  Inhibition of recorded ePSCs: selective inhibition

## picrotoxin
ES cell-derived neurons [1]; neurons after 28 days following differentiation in DDM, picrotoxin 100 μM
  Inhibition of recorded iPSCs: selective inhibition

## CC1=C2C[C@H]3[C@@H](CC=C4C[C@@H](O)CC[C@@]43C)[C@@H]2CC[C@]12O[C@@H]1C[C@H](C)CN[C@H]1[C@H]2C [cyclopamine]
ES cell-derived neurons [2]
  CTIP2 expressing neurons: 36.01+/−1.52%
  Cux1 expressing neurons: 10.56+/−0.80%
  Otx1 expressing neurons: 15.42+/−1.06%
  Satb2 expressing neurons: 7.60+/−0.78%
  Tbr1 expressing neurons: 38.14+/−1.54%
  reelin expressing neurons: 21.18+/−1.28%
ES cell-derived neurons [3]
  VGluT1 expressing neurons: 70.04+/−2.98%
  VGluT2 expressing neurons: 15.46+/−2.52%
ES cell-derived neurons [1]
  GABAergic inhibitory post-synaptic currents (iPSCs) recorded: no or little iPSCs could be recorded
  Neurons displaying glutamatergic excitatory post-synaptic currents (ePSCs): 38.89+/−11.49%
ES cell-derived neurons [4]; cut-off 1.2 μm, of MAP2-positive neurons after 28 days of differentiation
  Neurons with PMI superior to the cut-off value: 77.23+/−4.17%
ES cell-derived neurons [4]; p<0.001, Mann-Whitney test
  PMI compared with DDM conditions: significantly higher PMI
ES cell-derived neurons [4]; semi-quantitative scoring, MAP2-positive neurons, 28 days
  Neurons showing a unipolar morphology: 61.39+/−4.84%
ES cell-derived neurons [5]
  Neurons displaying a radial orientation: 64.98+/−2.40%
[6]; day 10
  BrdU labelled neural progenitors, day 10: 42.11+/−3.42%
[6]; day 14
  BrdU labelled neural progenitors, day 14: 28.57+/−2.00%
ES cells; cyclopamine 1 μM day 2 to day 10, 14 days of differentiation, of Nestin-positive cells
  Otx1-2 positive neural progenitors: 75.57+/−1.21%
ES cells; [9]
  Gsh2 expression among neural progenitors: 1.37+/−0.61%
  Nkx2.1 expression among neural progenitors: 1.87+/−1.10%
  Nkx2.2 expression among neural progenitors: 4.05+/−1.10%
  Otx1 expression among neural progenitors: 71.21+/−2.52%
  Pax6 expression among neural progenitors: 73.03+/−2.44%
ES cells; different time points, compared with DDM without cyclopamine
  Effect on the neuralization process (pattern of pan-neural markers): did not change significantly

B1: Dkk: Dickkopf-1 (Dkk), a soluble antagonist of the Wnt pathway (protein, UniProt O94907 32-266, looked up)
Dickkopf-related protein 1: TLNSVLNSNAIKNLPPPLGGAAGHPGSAVSAAPGILYPGGNKYQTIDNYQPYPCAEDEECGTDEYCASPTRGGDAGVQICLACRKRRKRCMRHAMCCPGNYCKNGICVSSDQNHFRGEIEETITESFGNDHSTLDGYSRRTTLSSKMYHTKGQEGSVCLRSSDCASGLCCARHFWSKICKPVLKEGQVCTKHRRKGSHGLEIFQRCYCGEGLSCRIQKDHHQASNSSRLHTCQRH
[7]; 300 ng/ml Dkk, of all Nestin-positive cells
  Proportion of Nkx2.1 positive progenitors: 29.0±2.0%
[7]; Dkk 300 ng/ml, of Nestin-positive cells
  Expression of Pax6 among progenitors: 23.7±1.4%
